# Assay results taken from paper PMC8850458, “The AUTOTAC chemical biology platform for targeted protein degradation via the autophagy-lysosome system” (Nature Communications, 2022).
# Where “and” joins values, the source holds several entries; their conditions need not be identical. Equal values may be shown once.
# Assays:
# [1] = system: RFP-GFP-hTauP301L pre-formed inclusion bodies; test: ICC of mRFP-GFP-hTauP301L inclusion bodies (puncta, GFP/RFP ratio) in HeLa cells; assay type: cell-based; details: Fig. S6i, PBA-1105 given with O.A.
# Description: Cells were cultured on coverslips coated with poly-L-lysine (Sigma) to observe cellular localization of proteins. Using 4% paraformaldehyde in PBS (pH 7.4), the cells were fixed for 15 min at room temperature and washed three times for 5 min with PBS. After fixing, the cells were permeabilized with 0.5% Triton X-100 in PBS solution for 15 min and washed three times with PBS for 5 min. The cells were blocked containing 2% BSA in PBS solution for 1 h at room temperature. Subsequently, the cells were incubated with primary antibody diluted in 2% BSA/PBS solution overnight at 4 °C, followed by washing the cells three times for 10 min with PBS and incubated with Alexa Fluor-conjugated secondary antibody diluted in 2% BSA/PBS for 30 min at room temperature. Using a DAPI-containing mounting medium (Vector Laboratories), the coverslips were mounted on glass slides. Confocal images were taken by laser scanning confocal microscope 510 Meta (Zeiss) and analyzed by Zeiss LSM Image Browser (ver. 4.2.0.121). […] Quantification results are shown as mean ± S.D. or S.E.M. of three independent experiments […]
# Supplementary Fig. 6. […]
# (0.1 μM, 24 h). (h) ICC in HeLa cells transiently expressing mRFP-GFP-hTauP301L and treated with okadaic acid (15 nM, 24 h) prior to the presence or absence of PBA-1105 (100 nM, […]
# 24 h). Scale bar, 10 µm. (i) Quantification of h for punctate formation and GFP/RFP ratio (n=3 biologically independent experiments each counting 50 cells and 10 puncta within one image).
# Data are presented as mean values ± SD for aggregate formation and as mean values ± SEM […]
# for GFP/RFP ratio. […]
# (1 µM, 24 h) or negative control. P-values (from a two-sided unpaired t-test): **P < 0.00662 (for tau aggregate formation), **P < 0.00779 (for GFP/RFP ratio). Source data are provided
# p62^+ERβ^+ puncta = test: ICC of ERβ puncta co-localization in ACHN cells; assay type: cell-based; details: 24 h; for ERβ-LC3 colocalization, cells of 50 cells counted: single experiments
# Description: Cells were cultured on coverslips coated with poly-L-lysine (Sigma) to observe cellular localization of proteins. Using 4% paraformaldehyde in PBS (pH 7.4), the cells were fixed for 15 min at room temperature and washed three times for 5 min with PBS. After fixing, the cells were permeabilized with 0.5% Triton X-100 in PBS solution for 15 min and washed three times with PBS for 5 min. The cells were blocked containing 2% BSA in PBS solution for 1 h at room temperature. Subsequently, the cells were incubated with primary antibody diluted in 2% BSA/PBS solution overnight at 4 °C, followed by washing the cells three times for 10 min with PBS and incubated with Alexa Fluor-conjugated secondary antibody diluted in 2% BSA/PBS for 30 min at room temperature. Using a DAPI-containing mounting medium (Vector Laboratories), the coverslips were mounted on glass slides. Confocal images were taken by laser scanning confocal microscope 510 Meta (Zeiss) and analyzed by Zeiss LSM Image Browser (ver. 4.2.0.121). […] Quantification results are shown as mean ± S.D. or S.E.M. of three independent experiments
# [2] = system: ERβ signaling (EGFR, p-ERK/ERK, p-Akt/Akt); test: WB of ERβ downstream signaling in E2-stimulated LNCaP cells; assay type: cell-based; details: levels of EGFR
# Source text: To assess the therapeutic efficacy of autophagy-targeting degraders, we compared the downstream signaling of AR and ERβ in cells treated with either AUTOTACs or their cognate TBLs. Dihydrotestosterone (DHT) and estradiol (E2) are natural agonists that respectively bind AR and ERβ and induce their dimerization and nuclear translocation, resulting in transcriptional activation of downstream proteins[27],[28]. […] Next, we examined the potency of AUTOTACs in cancer cell growth and progression.
# Adherent cells were washed with phosphate-buffered saline (PBS) and cell pellets were lysed in SDS-based sample buffer (277.8 mM Tris-HCI, pH 6.8, 4.4% LDS, 44.4% (v/v) glycerol) containing beta-mercaptoethanol. Alternatively, cell pellets or protein supernatants were lysed in 5X Laemmli sample buffer. Whole-cell lysates were separated using SDS-PAGE, and transferred onto polyvinyllidene difluoride membranes at 100 V for 2 h at 4 °C.
# [3] = WST-based cell viability assay in LNCaP cells; details: human, LNCaP cells
# LNCaP cells = test: WST-based cell viability assay in LNCaP cells; details: LNcaP, duplicates; for WST assay raw reading: listed as Vinclo.-2204
# [4] = WST assay viability relative to con = 100, LNcaP, duplicates
# [5] = WST assay viability, AVG %, LNcaP
smiles,measurement,setting,value
O=C(CCCc1ccccc1)NCCOCCOCCOCCNCc1ccc(OCc2ccccc2)c(OCc2ccccc2)c1 [PBA-1105],"AVG GFP/RFP ratio per puncta, total AVG",[1]; con 1.00467,0.4057
same,"AVG GFP/RFP ratio per puncta, relative % AVG",[1]; con 100,40.3782%
same,"AVG GFP/RFP ratio per puncta, AVG per experiment",[1]; n=1 to n=3,0.551 and 0.37 and 0.296
same,"puncta formation of cells with AVG RFP/GFP ratio < 0.5, AVG of cells per 50 cells","[1]; RFP-GFP-TauP301L, con 4.33333",30.3333
same,"puncta formation of cells with AVG RFP/GFP ratio < 0.5, percentage AVG","[1]; RFP-GFP-TauP301L, con 8.66667",60.6667
same,"puncta formation of cells with AVG RFP/GFP ratio < 0.5, cells counted per 50 cells","[1]; RFP-GFP-TauP301L, single experiments",33 and 37 and 21
O[C@H](CNCCOCCOCCOc1ccc(-c2c(-c3ccccc3)nn3c(C(F)(F)F)cc(C(F)(F)F)nc23)cc1)COc1ccc(OCc2ccccc2)c(OCCCc2ccccc2)c1 [PHTPP-1304],"ERβ-LC3 colocalization, AVG of cells of 50",p62^+ERβ^+ puncta; 0.5uM,5.667
same,"ERβ-LC3 colocalization, percentage AVG",p62^+ERβ^+ puncta; 0.5uM,11.3333%
same,"ERβ-LC3 colocalization, AVG of cells of 50",p62^+ERβ^+ puncta; 2.5uM,12.6667
same,"ERβ-LC3 colocalization, percentage AVG",p62^+ERβ^+ puncta; 2.5uM,25.3333%
same,"ERβ-LC3 colocalization, AVG of cells of 50",p62^+ERβ^+ puncta; 10uM + HCQ,39
same,"ERβ-LC3 colocalization, percentage AVG",p62^+ERβ^+ puncta; 10uM + HCQ,78%
same,"ERβ-LC3 colocalization, cells of 50 cells counted",p62^+ERβ^+ puncta; 10uM + HCQ,34 and 42 and 41
same,"ERβ-LC3 colocalization, AVG of cells of 50",p62^+ERβ^+ puncta; 10uM,29
same,"ERβ-LC3 colocalization, percentage AVG",p62^+ERβ^+ puncta; 10uM,58%
same,"ERβ-LC3 colocalization, cells of 50 cells counted",p62^+ERβ^+ puncta; 10uM,24 and 34 and 29
same,inhibition of ERβ signaling relative to its TBL,[2],10 folds
C=CC(C)(O)C(=O)N(C(=O)NCCOCCOCCNCC(O)COc1ccc(OCCc2ccccc2)c(OCCc2ccccc2)c1)c1cc(Cl)cc(Cl)c1 (stereo not drawn) [VinclozolinM2-2204],IC50,[3],4.7 µM
same,viability at 0.01 µM,[3]; [4],93.5%
same,viability at 0.1 µM,[3]; [4],92.5%
same,viability at 1 µM,[3]; [4],89.8%
same,viability at 10 µM,[3]; [4],24.6%
same,viability at 50 µM,[3]; [4],1.83%
same,viability at 100 µM,[3]; [4],3.03%
same,viability at 0.01 µM,[3]; [5],92.9%
same,viability at 0.1 µM,[3]; [5],91.6%
same,viability at 1 µM,[3]; [5],89.9%
same,viability at 10 µM,[3]; [5],30.9%
same,viability at 50 µM,[3]; [5],1.93%
same,viability at 100 µM,[3]; [5],3.08%
same,WST assay raw reading,LNCaP cells; 0.01uM,1.976 and 1.95
same,WST assay viability relative to con = 100,"LNCaP cells; 0.01uM, listed as Vinclo.-2204, 0.01 µM",92.2257
same,WST assay raw reading,LNCaP cells; 0.1uM,1.955 and 1.92
same,WST assay viability relative to con = 100,"LNCaP cells; 0.1uM, listed as Vinclo.-2204, 0.1 µM",90.7275
same,WST assay raw reading,LNCaP cells; 1uM,1.902 and 1.905
same,WST assay viability relative to con = 100,"LNCaP cells; 1uM, listed as Vinclo.-2204, 1 µM",89.9784
same,WST assay raw reading,LNCaP cells; 10uM,0.595 and 0.848
same,WST assay viability relative to con = 100,"LNCaP cells; 10uM, listed as Vinclo.-2204, 10 µM",37.1899
same,WST assay raw reading,LNCaP cells; 50uM,0.14 and 0.144
same,WST assay viability relative to con = 100,"LNCaP cells; 50uM, listed as Vinclo.-2204, 50 µM",2.031
same,WST assay raw reading,LNCaP cells; 100uM,0.164 and 0.166
same,WST assay viability relative to con = 100,"LNCaP cells; 100uM, listed as Vinclo.-2204, 100 µM",3.13
